Measured values taken from publication PMC3961306, “Comparison of the Cancer Gene Targeting and Biochemical Selectivities of All Targeted Kinase Inhibitors Approved for Clinical Use” (PLoS ONE, 2014).

What was measured:
Test in all cases: Kinase profiling in a biochemical assay panel (mobility shift assays and ELISA), %-inhibition at 1 μM; selectivity entropy
[1] = target: panel of more than 300 wild-type and mutant kinases (313 kinase panel) (Homo sapiens, UniProt P48730); conditions: kinase CK1δ; 1 μM compound
[2] = target: panel of more than 300 wild-type and mutant kinases (313 kinase panel) (Homo sapiens, UniProt P22694)
[3] = target: T1, panel of more than 300 wild-type and mutant kinases (313 kinase panel) (Homo sapiens, UniProt Q16566); conditions: kinase CaMK4; 1 μM compound
T1 sequence (Q16566 1-473): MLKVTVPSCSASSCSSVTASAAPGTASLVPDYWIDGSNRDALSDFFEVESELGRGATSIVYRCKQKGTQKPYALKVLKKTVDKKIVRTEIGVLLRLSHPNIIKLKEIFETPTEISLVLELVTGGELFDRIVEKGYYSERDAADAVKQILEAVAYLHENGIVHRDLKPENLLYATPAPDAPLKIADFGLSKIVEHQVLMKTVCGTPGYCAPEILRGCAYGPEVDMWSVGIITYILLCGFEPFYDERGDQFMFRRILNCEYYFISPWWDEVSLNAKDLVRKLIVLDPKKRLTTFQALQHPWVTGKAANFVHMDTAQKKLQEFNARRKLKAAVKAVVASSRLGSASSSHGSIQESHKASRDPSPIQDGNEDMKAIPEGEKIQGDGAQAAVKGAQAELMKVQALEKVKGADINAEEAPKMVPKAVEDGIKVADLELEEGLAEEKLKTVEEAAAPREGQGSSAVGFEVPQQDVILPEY

[4] = target: panel of more than 300 wild-type and mutant kinases (313 kinase panel) (Homo sapiens, UniProt P22607, K650M); conditions: kinase FGFR3(K650M); compound at 1 μM
Chain of panel of more than 300 wild-type and mutant kinases (313 kinase panel) (Homo sapiens, UniProt P22607, K650M) (P22607 23-806 K650M): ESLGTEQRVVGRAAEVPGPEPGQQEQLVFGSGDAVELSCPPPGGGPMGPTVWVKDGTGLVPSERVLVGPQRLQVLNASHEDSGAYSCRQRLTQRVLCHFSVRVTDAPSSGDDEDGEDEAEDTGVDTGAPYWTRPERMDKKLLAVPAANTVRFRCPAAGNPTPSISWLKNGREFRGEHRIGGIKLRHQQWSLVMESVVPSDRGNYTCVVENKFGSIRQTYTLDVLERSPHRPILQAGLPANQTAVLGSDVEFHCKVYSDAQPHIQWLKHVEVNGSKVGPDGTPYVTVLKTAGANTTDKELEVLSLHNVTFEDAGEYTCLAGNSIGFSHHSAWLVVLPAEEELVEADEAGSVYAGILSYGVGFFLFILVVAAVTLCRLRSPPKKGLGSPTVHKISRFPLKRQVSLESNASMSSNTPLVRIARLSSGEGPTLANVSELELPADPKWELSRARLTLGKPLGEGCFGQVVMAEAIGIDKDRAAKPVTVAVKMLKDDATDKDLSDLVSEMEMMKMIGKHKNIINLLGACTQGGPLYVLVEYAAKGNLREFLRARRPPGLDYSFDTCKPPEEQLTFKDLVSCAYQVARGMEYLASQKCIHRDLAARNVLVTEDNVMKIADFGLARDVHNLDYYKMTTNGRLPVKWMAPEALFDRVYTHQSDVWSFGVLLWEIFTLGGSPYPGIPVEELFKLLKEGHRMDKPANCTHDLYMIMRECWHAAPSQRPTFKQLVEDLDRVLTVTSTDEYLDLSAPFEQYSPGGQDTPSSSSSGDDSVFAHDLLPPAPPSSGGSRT

[5] = target: T2, panel of more than 300 wild-type and mutant kinases (313 kinase panel) (Homo sapiens, UniProt Q96PF2); conditions: kinase TSSK2; 1 μM
T2 sequence (Q96PF2 1-358): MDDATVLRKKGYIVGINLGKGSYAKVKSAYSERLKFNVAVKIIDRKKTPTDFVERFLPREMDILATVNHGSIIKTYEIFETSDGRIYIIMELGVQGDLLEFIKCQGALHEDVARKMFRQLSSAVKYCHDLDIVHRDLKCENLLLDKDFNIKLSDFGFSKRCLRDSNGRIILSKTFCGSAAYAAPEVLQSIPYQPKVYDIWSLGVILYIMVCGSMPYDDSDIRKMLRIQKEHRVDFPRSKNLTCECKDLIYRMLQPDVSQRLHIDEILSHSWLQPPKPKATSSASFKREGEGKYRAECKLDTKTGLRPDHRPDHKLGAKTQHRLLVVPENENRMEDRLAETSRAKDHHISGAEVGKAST

[6] = target: panel of more than 300 wild-type and mutant kinases (313 kinase panel) (Homo sapiens, UniProt Q9Y6R4); conditions: kinase MAP3K4; compound at 1 μM
Chain of panel of more than 300 wild-type and mutant kinases (313 kinase panel) (Homo sapiens, UniProt Q9Y6R4) (Q9Y6R4 whole entry, change not shown): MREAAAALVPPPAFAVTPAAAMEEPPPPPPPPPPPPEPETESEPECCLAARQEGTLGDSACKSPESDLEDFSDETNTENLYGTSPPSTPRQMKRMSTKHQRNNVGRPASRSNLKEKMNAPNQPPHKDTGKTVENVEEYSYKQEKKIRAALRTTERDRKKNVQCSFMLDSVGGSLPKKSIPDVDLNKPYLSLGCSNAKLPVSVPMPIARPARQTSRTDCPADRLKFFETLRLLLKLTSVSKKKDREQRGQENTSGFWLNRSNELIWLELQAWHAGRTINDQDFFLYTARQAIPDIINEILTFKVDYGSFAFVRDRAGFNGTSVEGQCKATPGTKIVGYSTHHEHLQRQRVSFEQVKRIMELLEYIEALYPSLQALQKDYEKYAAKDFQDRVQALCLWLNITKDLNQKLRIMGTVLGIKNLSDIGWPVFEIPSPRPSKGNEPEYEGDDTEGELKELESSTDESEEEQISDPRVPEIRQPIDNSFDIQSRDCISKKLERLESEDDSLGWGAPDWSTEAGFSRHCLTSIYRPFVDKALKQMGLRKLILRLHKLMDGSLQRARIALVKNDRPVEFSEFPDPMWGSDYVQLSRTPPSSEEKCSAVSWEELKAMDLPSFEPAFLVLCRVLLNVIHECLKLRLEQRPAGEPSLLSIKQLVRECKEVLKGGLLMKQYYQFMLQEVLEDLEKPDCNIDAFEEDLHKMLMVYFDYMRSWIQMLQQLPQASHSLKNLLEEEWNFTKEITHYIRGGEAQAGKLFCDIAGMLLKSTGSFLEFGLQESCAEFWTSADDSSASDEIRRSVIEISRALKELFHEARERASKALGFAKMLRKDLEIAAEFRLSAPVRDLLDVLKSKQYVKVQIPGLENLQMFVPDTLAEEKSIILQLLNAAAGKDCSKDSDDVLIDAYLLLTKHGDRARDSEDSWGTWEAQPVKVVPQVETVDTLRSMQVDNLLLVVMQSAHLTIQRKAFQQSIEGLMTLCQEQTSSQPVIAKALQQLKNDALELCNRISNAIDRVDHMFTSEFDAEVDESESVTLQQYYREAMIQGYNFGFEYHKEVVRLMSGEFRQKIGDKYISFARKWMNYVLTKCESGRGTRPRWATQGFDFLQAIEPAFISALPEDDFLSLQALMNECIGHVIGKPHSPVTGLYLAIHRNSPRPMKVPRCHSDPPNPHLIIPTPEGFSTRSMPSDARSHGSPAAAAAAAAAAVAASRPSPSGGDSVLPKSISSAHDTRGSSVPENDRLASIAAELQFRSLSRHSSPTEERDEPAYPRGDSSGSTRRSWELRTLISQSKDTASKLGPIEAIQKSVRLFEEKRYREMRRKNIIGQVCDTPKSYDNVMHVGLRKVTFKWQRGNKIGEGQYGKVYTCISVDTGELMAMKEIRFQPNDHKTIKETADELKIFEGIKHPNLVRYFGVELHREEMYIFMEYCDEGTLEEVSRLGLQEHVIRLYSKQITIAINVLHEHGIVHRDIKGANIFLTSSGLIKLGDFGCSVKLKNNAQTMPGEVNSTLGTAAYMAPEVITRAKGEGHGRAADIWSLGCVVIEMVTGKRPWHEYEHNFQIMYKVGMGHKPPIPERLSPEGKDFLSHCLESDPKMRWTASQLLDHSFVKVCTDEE

[7] = target: T3, panel of more than 300 wild-type and mutant kinases (313 kinase panel) (Homo sapiens, UniProt P51817); conditions: kinase PRKX; 1 μM
T3 sequence (P51817 1-358): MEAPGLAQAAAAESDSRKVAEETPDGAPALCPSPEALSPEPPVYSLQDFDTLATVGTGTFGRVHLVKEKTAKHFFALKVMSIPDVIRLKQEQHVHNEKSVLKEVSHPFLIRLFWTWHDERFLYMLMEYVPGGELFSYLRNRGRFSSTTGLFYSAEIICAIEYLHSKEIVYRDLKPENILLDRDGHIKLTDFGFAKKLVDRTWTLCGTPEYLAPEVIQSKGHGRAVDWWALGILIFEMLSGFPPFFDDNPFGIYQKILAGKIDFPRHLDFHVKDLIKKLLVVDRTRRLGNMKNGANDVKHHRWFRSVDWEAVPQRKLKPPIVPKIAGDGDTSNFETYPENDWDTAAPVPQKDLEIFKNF

[8] = target: T4, panel of more than 300 wild-type and mutant kinases (313 kinase panel) (Homo sapiens, UniProt P30530); conditions: kinase AXL; 1 μM compound
T4 sequence (P30530 26-894): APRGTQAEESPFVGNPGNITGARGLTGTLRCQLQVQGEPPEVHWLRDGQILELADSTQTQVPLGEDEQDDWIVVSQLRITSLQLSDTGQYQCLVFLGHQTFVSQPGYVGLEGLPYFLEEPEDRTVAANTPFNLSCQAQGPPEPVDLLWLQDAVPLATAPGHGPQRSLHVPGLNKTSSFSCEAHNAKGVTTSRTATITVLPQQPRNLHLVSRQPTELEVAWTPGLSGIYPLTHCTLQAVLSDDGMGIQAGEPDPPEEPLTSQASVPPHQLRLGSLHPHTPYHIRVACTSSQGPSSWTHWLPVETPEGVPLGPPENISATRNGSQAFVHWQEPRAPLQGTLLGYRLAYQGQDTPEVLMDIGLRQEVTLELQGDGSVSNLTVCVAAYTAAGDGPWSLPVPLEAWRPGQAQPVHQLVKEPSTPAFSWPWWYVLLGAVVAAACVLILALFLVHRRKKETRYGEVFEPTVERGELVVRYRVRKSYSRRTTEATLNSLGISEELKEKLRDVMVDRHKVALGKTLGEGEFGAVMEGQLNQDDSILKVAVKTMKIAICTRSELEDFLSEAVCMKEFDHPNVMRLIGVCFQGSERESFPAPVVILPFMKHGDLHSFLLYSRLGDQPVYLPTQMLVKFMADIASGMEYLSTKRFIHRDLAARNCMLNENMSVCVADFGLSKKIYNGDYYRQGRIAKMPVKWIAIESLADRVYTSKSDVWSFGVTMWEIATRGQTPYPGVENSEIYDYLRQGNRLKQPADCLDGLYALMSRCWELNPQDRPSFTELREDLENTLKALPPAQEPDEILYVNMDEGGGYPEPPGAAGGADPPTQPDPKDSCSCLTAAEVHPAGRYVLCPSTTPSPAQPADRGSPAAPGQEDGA

Structure (SMILES) | %-inhibition, CK1δ [1] | %-inhibition of PKACβ ([2]; 1 µM) | %-inhibition, CaMK4 [3] | %-inhibition of FGFR3(K650M) [4] | %-inhibition of TSSK2 [5] | %-inhibition of MAP3K4 [6] | %-inhibition of PRKX [7] | %-inhibition, AXL [8] | %-inhibition of PKACβ ([2]; kinase PKACβ, 1 μM)
N#CC[C@H](C1CCCC1)n1cc(-c2ncnc3[nH]ccc23)cn1 [ruxolitinib] | 12% | 39% | -2.58% | 16% | -10% | -4% | 16% | 12% | 
CO[C@H]1C[C@@H]2CC[C@@H](C)[C@@](O)(O2)C(=O)C(=O)N2CCCC[C@H]2C(=O)O[C@H]([C@H](C)C[C@@H]2CC[C@@H](OC(=O)C(C)(CO)CO)[C@H](OC)C2)CC(=O)[C@H](C)/C=C(\C)[C@@H](O)[C@@H](OC)C(=O)[C@H](C)C[C@H](C)/C=C/C=C/C=C/1C [temsirolimus] | -5.47% |  | -9% | 0.626% | -0.179% | 11% | -1.9% | -1.78% | -6%
CC(=O)Nc1cccc(-n2c(=O)n(C3CC3)c(=O)c3c(Nc4ccc(I)cc4F)n(C)c(=O)c(C)c32)c1 [trametinib] | 0.365% |  | -5.45% | -0.169% | -1.73% | 6% | -1.19% | -1.12% | -5%
CCCS(=O)(=O)Nc1ccc(F)c(C(=O)c2c[nH]c3ncc(-c4ccc(Cl)cc4)cc23)c1F [vemurafenib] | -3% |  | -2.38% | 8% | -11% | 14% | -3.45% | 20% | 2.66%
